Results from article PMC7151078, “A Novel NMDA Receptor Antagonist Protects against Cognitive Decline Presented by Senescent Mice” (Pharmaceutics, 2020).

System: SAMR1 and SAMP8 mice
Assay: proBDNF and mBDNF protein levels in the hippocampus (ELISA)
Format: in vivo, mouse
Procedure: Male SAMR1 and SAMP8 mice (n = 41) with 20-weeks-old were used to carry out cognitive and molecular analysis. The animals were randomly divided into four groups: SAMR1 control (SR1 Ct) group (n = 11), SAMP8 control (SP8 Ct) group (n = 8), SAMR1 treated with RL-208 (SR1 RL-208 (5 mg/Kg)) group (n = 10) and SAMP8 treated with RL-208 (SP8 RL-208 (5 mg/Kg)) group (n = 12). Animals had free access to food and water, under standard temperature conditions (22±2 °C) and 12h:12h light-dark cycles (300 lux/0 lux). RL-208, (3,4,8,9-tetramethyltetracyclo[4.4.0.0^3,9.0^4,8]dec-1-yl)-methylamine hydrochloride, (5 mg/kg/day) was administered through drinking water for four weeks before starting the cognitive test. RL-208 was administered up to euthanasia (Figure 1A). Water consumption was controlled each week for each cage and strain. Afterwards, RL-208 concentration was adjusted accordingly to reach the optimal dose for each cage. Three days after the behavioural and cognitive tests, mice were euthanized by cervical dislocation. Brains were immediately removed from the skull. The hippocampus and cortex were then isolated and frozen in powdered dry ice. They were maintained at −80 °C for further use. Tissue samples were homogenized in lysis buffer containing phosphatase and protease inhibitors (Cocktail II, Sigma). Total protein levels were obtained, and protein concentration was determined by the method of Bradford. The hippocampal determination of pro-Brain-derived neurotrophic factor (proBDNF) and mature brain-derived neurotrophic factor (mBDNF) protein levels was performed using the enzyme-linked immunosorbent assay (ELISA) kit (Biosensis) according to the manufacturer’s instructions.

## CC12CC3CC1(C)C1(C)CC3(CN)CC21C.Cl [RL-208, (3,4,8,9-tetramethyltetracyclo [4.4.0.0^3,9.0^4,8]dec-1-yl)methylamine hydrochloride]
RL-208 treated mice vs control groups
  mature BDNF protein levels: significant augment
SP8 treated vs control
  proBDNF protein levels: significant reduction
SR1 strain
  proBDNF protein levels (differences): not significant
